Measured values reported in patent publication EP4588921A1, “FREE BASE CRYSTAL FORM OF POLYCYCLIC COMPOUND OF NITROGEN-CONTAINING HETEROCYCLE, AND PREPARATION METHOD THEREFOR” (Jiangsu Hansoh Pharmaceutical Group Co., Ltd., priority 2022, dated 2024).
pIC50: −log10 of the molar value. Converted amounts (≈) assume the structure as drawn. Like-named read-outs stand apart in the source and are kept apart here. Blank lines part the entries; values can stand above or below the compound they belong to.

What was measured:
human OX2R = biological target: T1, human OX2R (Homo sapiens, UniProt O43614); assay: Calcium current (FLIPR) in cells stably expressing OX2 receptor; assay type: cell-based; details: for pIC50: CHO-K1/human OX2R cells, agonist OX-B at EC80, FLIPR Tetra; for Select fold: OX1R IC50 over OX2R IC50
T1 construct: expressed in transfected cells; host or cells: CHO-K1
T1 sequence (O43614 1-444): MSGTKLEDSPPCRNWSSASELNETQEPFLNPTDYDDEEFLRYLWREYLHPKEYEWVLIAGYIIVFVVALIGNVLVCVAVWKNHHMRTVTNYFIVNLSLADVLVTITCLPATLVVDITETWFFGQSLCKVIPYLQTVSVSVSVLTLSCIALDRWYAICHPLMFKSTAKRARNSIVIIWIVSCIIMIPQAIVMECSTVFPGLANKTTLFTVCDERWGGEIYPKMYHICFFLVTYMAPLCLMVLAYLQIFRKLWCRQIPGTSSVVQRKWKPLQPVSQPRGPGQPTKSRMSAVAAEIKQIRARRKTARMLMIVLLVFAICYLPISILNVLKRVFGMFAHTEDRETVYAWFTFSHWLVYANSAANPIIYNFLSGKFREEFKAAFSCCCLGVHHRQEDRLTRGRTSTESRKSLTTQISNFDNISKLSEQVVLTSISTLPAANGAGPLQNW
Protocol: (§1) Determination of the effect of the compounds of the present invention on calcium current in cells stably expressing OX1 and OX2 receptors 1. Experimental objective: The inhibitory effect of the compounds on calcium current activity in CHO-K1/human OX1R and CHO-K1/human OX2R cells was detected. 2. […] 3. […] The IC50 of the positive compounds and test compounds was determined. 4. Experimental data processing method: FLIPR Tetra was used to read and collect the fluorescence signal value (RFU). […] 5.

human OX1R = biological target: T2, human OX1R (Homo sapiens, UniProt O43613); assay: Calcium current (FLIPR) in cells stably expressing OX1 receptor; assay type: cell-based; details: CHO-K1/human OX1R cells; agonist OX-A at EC80; FLIPR Tetra
T2 construct: expressed in transfected cells; host or cells: CHO-K1
T2 sequence (O43613 1-425): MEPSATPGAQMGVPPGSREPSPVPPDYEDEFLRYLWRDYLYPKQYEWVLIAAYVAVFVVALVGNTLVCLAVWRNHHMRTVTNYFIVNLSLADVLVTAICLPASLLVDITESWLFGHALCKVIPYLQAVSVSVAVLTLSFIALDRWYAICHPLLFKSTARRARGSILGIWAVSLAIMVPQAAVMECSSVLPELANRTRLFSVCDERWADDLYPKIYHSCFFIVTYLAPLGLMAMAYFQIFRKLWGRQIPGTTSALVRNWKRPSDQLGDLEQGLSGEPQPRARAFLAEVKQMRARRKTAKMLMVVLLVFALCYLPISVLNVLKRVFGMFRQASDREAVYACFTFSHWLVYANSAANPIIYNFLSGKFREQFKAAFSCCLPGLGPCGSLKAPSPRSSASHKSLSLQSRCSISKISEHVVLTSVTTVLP
Protocol: as §1

[1] = Solubility experiments in different media (thermodynamic solubility); assay type: physicochemical; details: thermodynamic from solid
Source text: The solubility of the free base crystal form I and the free base crystal form II in media such as pH 1.0-8.0 USP buffer, artificial simulated gastric fluid (FaSSGF), fasted-state artificial simulated intestinal fluid (FaSSIF), fed-state artificial simulated intestinal fluid (FeSSIF) and pure water was compared to provide a basis for the evaluation of drugability.

[2] = Solid stability experiment (related substances by HPLC); assay type: physicochemical
Protocol: The compound physical and chemical stability at high temperature of 60°C, high humidity of 92.5% RH and both high temperature of 50°C and high humidity of 75% RH of the free base crystal form I and the free base crystal form II were investigated to provide a basis for the storage of the compounds.
About 2 mg of the free base crystal form I and the free base crystal form II were taken respectively, and changes of related substances in the crystal forms at high temperature of 60°C, high humidity of 92.5% RH, and both high temperature of 50°C and high humidity of 75%RH for 7 days and 14 days were investigated. The changes of related substances were calculated by HPLC and the chromatographic peak area normalization method.

[3] = Hygroscopicity experiment; assay type: physicochemical; details: at 80%RH
Protocol: The hygroscopicity of the crystal form I and the crystal form II of compound 9 were investigated under different relative humidity to provide a basis for the storage of the compounds.
The crystal form I and the crystal form II of compound 9 were placed in saturated water vapor at different relative humidities to allow the compound to reach a dynamic equilibrium with the water vapor, and the percentage of weight gain after moisture absorption of the compound after equilibrium was calculated.

[4] = PK studies in animals of the free base crystal forms; assay type: in vivo; details: Sprague-Dawley (SD), rat, 30 mg/kg, 30MPK, 0.5%HPMC suspension, SD rats, plasma
Protocol: The pharmacokinetic of the free base crystal form after a single intravenous administration was studied, and the bioavailability of the free base crystal form I and the free base crystal form II after oral administration were calculated.
The free base crystal form I was suspended with 0.5% CMCC-Na aqueous solution, and the free base crystal form […] aqueous solution. After uniformity, the suspensions were administered intragastrically to rats in triplicate at a dosage of 5 mg/kg (30 mg/kg for suspension) for the free base crystal form I and a dosage of 30 mg/kg (suspension) for the free base crystal form II. The free base crystal form I was dissolved with 20% HP-β-CD aqueous solution to obtain a clear solution, and the clear solution was filtered through a filter membrane. The filtered solution was administered via injection to rats in triplicate.

in vivo = details: male, SD, rat, po, 5 mg/kg
Protocol: SD rats were used as test animals to study the pharmacokinetic behaviour of the compounds of the present invention in rat (plasma) after oral administration at a dose of 5 mg/kg.
The example compound of the present invention, made in house.
Oral administration drug preparation: 20%HP-β-CD in Water
HP-β-CD powder (20 g) was weighed and dissolved in purified water (100 mL), and the mixture was homogeneously mixed by vortex and subjected to ultrasound treatment to afford a clear solution.
The example compound was weighed and added to a 20 mL glass bottle, the solution was added and the mixture was subjected to ultrasound treatment for 10 minutes to afford a colourless clear solution with a concentration of 0.5 mg/mL.
The brain tissues were rinsed with pre-cooled PBS, wiped dry, weighed, and stored at -80°C.
• 1) Acetonitrile (160 µL) was added to plasma sample (40 µL) for precipitation, and the mixture was mixed and centrifuged at 3500 × g for 5 to 20 minutes. • 2) The treated supernatant solution was taken and subjected to LC/MS/MS to analyse the concentrations of the test compounds. LC/MS/MS analysis instrument: AB Sciex API 4000 Qtrap.
• Liquid phase conditions: Shimadzu LC-20AD pump • Chromatographic column: Agilent ZORBAX XDB-C18 (50×2.1 mm, 3.5 µm) mobile phase: liquid A: 0.1% aqueous formic acid solution, liquid B: acetonitrile • Flow rate: 0.4 mL/min • Elution time: 0-4.0 min, the eluent is as follows:
The main pharmacokinetic parameters were calculated using WinNonlin 6.1.

[5] = Room temperature, 92.5%RH, 7 days
[6] = Room temperature, 92.5%RH, 14 days

pIC50 (human OX2R): 7.60
Select fold (human OX2R): 48
pIC50 (human OX1R): 5.92
SMILES: Cc1nc(N2C[C@H]3CN(C(=O)c4ccc(F)cc4-n4nccn4)C[C@H]3C2)nc(C(C)(C)O)c1F [Compound 10, (4-fluoro-2-(2H-1,2,3-triazol-2-yl)phenyl)((cis)-5-(5-fluoro-4-(2-hydroxypropan-2-yl)-6-methylpyrimidin-2-yl)hexahydropyrrolo [3,4-c]pyrrol-2(1H)-yl)methanone]

solubility at 2 h ([1]; FaSSCoF, 37 °C, fassgf or other biorelevant, FaSSCoF, read-out: Solubility of free base crystal form II): 51 µg/mL (≈ 109 µM)
solubility at 2 h ([1]; FaSSGF (artificial simulated gastric fluid), 37 °C, fassgf or other biorelevant, FaSSGF, read-out: Solubility of free base crystal form II): 131 µg/mL (≈ 281 µM)
solubility at 2 h ([1]; FaSSIF, 37 °C, fassif, FaSSIF, read-out: Solubility of free base crystal form II): 60 µg/mL (≈ 129 µM)
solubility at 2 h ([1]; FeSSCoF, 37 °C, fassgf or other biorelevant, FeSSCoF, read-out: Solubility of free base crystal form II): 63 µg/mL (≈ 135 µM)
solubility at 2 h ([1]; FeSSIF, 37 °C, fessif, FeSSIF, read-out: Solubility of free base crystal form II): 100 µg/mL (≈ 214 µM)
solubility at 2 h ([1]; USP buffer pH 1.0, 37 °C, pH 1, simulated gastric fluid, pH 1.0, read-out: Solubility of free base crystal form II): 599 µg/mL (≈ 1280 µM)
solubility at 2 h ([1]; USP buffer pH 2.0, 37 °C, pH 2, simulated gastric fluid, pH 2.0, read-out: Solubility of free base crystal form II): 89 µg/mL (≈ 191 µM)
solubility at 2 h ([1]; USP buffer pH 3.0, 37 °C, pH 3, aqueous buffer, pH 3.0, read-out: Solubility of free base crystal form II): 55 µg/mL (≈ 118 µM)
solubility at 2 h ([1]; USP buffer pH 4.5, 37 °C, pH 4.5, aqueous buffer, pH 4.5, read-out: Solubility of free base crystal form II): 53 µg/mL (≈ 114 µM)
solubility at 2 h ([1]; USP buffer pH 6.8, 37 °C, pH 6.8, aqueous buffer, pH 6.8, read-out: Solubility of free base crystal form II): 49 µg/mL (≈ 105 µM)
solubility at 2 h ([1]; USP buffer, 37 °C, pH 4, aqueous buffer, pH 4.0, read-out: Solubility of free base crystal form II): 51 µg/mL (≈ 109 µM)
solubility at 2 h ([1]; USP buffer, 37 °C, pH 5, aqueous buffer, pH 5.0, read-out: Solubility of free base crystal form II): 50 µg/mL (≈ 107 µM)
solubility at 2 h ([1]; USP buffer, 37 °C, pH 6, aqueous buffer, pH 6.0, read-out: Solubility of free base crystal form II): 50 µg/mL (≈ 107 µM)
solubility at 2 h ([1]; USP buffer, 37 °C, pH 7, aqueous buffer, pH 7.0, read-out: Solubility of free base crystal form II): 47 µg/mL (≈ 101 µM)
solubility at 2 h ([1]; USP buffer, 37 °C, pH 8, aqueous buffer, pH 8.0, read-out: Solubility of free base crystal form II): 47 µg/mL (≈ 101 µM)
solubility at 2 h ([1]; water, 37 °C, water, H2O, read-out: Solubility of free base crystal form II): 55 µg/mL (≈ 118 µM)
% Increase in total impurity ([2]; 50°C, 75%RH, 7 days): <0.10%
% Maximum increase in single impurity ([2]; 50°C, 75%RH, 7 days): <0.10%
% Increase in total impurity ([2]; 50°C, 75%RH, 14 days): <0.10%
% Maximum increase in single impurity ([2]; 50°C, 75%RH, 14 days): <0.10%
% Increase in total impurity ([2]; 60°C, 7 days): <0.10%
% Maximum increase in single impurity ([2]; 60°C, 7 days): <0.10%
% Increase in total impurity ([2]; 60°C, 14 days): <0.10%
% Maximum increase in single impurity ([2]; 60°C, 14 days): <0.10%
% Increase in total impurity [2, 5]: <0.10%
% Maximum increase in single impurity [2, 5]: <0.10%
% Increase in total impurity [2, 6]: <0.11%
% Maximum increase in single impurity [2, 6]: <0.10%
weight gain after moisture absorption [3]: about 0.2053%
Tmax ([4]; PO, read-out: tmax): 2 h
AUC(0-inf) ([4]; po): 13600 ng·h/mL
AUC(0-t) ([4]; po): 11800 ng·h/mL
Cmax ([4]; po): 2520 ng/mL
bioavailability ([4]; po): 39.6%
half-life ([4]; po): 2.4 h
MRT inf ([4]; po, PO, read-out: MRT 0-∞): 4.3 h
SMILES: CC(C)(O)c1nc(N2C[C@H]3CN(C(=O)c4c(F)cccc4-c4ncccn4)C[C@H]3C2)ncc1F [free base crystal form II, ((3aR,6aS)-5-(5-fluoro-4-(2-hydroxyprop-2-yl)pyrimidin-2-yl)hexahydropyrrolo [3,4-c]pyrrol-2(1H)-yl)(2-fluoro-6-(pyrimidin-2-yl)phenyl)methanone]

AUC(0-inf) (in vivo): 335 ng·h/mL
Cmax (in vivo): 420 ng/mL
Tmax (in vivo): 0.5 h
pIC50 (human OX2R): 8.14
Select fold (human OX2R): 36
pIC50 (human OX1R): 6.58
SMILES: Cc1nc(N2C[C@H]3CN(C(=O)c4c(F)cccc4-c4ccccn4)C[C@H]3C2)nc(C(C)(C)O)c1F [Compound 12, ((3aR,6aS)-5-(5-fluoro-4-(2-hydroxypropan-2-yl)-6-methylpyrimidin-2-yl)hexahydropyrrolo[3,4-c]pyrrol-2(1H)-yl)(2-fluoro-6-(pyridin-2-yl)phenyl)methanone]
